Values quoted from earlier work in patent publication US6630178B1, “Composition comprising soy protein, dietary fibres and a phytoestrogen compound and use thereof in the prevention and/or treatment of cardiovascular diseases” (Nutri Pharma Asa, priority 1998, dated 2003).

Test system: estrogenic effect
Conditions: estradiol = 100; in vitro

SMILES: O=c1c(-c2ccc(O)cc2)coc2cc(O)ccc12 [daidzein]
- relative estrogenic potency as compared to estradiol: 0.013
